23 compounds from US20230399320A1, “NOVEL CAPSID ASSEMBLY INHIBITOR” (Pelemed Co., Ltd., priority 2020, published 2023) can be followed below.

The target in experiment [1] is T1, Cp149 (truncated form of a HBV core protein) (Hepatitis B virus genotype D subtype ayw, UniProt P03146).
T1 construct: Cp149 (amino acids 1-149) is a truncated form of a HBV core protein; histidine tag (cleaved yes); made in house; host or cells: Escherichia coli BL21(DE3)
The experiment can be described thus: Protein based assay: immunoblot analysis of in vitro HBV capsid assembly. The following applies: for inhibition at 0.1 µM: read-out: Protein based assay (% inhibition), 0.1 μM; for inhibition at 1 µM: read-out: Protein based assay (% inhibition), 1 μM; for inhibition at 10 µM: read-out: Protein based assay (% inhibition, 10 μM). Format: biochemical. As for the experimental part:
Cp149 (amino acids 1-149) is a truncated form of a HBV core protein. It was expressed in Escherichia coli, and the expressed protein was purified. The recombinant Cp149 was expressed in E. coli BL21(DE3) cells cultured in LB medium at 37° C. When the culture reached an OD600 of 0.7 to 0.8, expression of the culture was induced with 0.5 mM isopropyl-β-d-thiogalactopyranoside and the culture was cooled to 16° C. After 16 hours, the cells were harvested, flash-frozen in liquid nitrogen, and stored at −80° C. To purify Cp149, thawed cells were resuspended in lysis buffer (20 mM Tris-HCl pH 9.0, 200 mM NaCl, 10 mM imidazole, 10 μg per mL DNaseI, 1 mM phenylmethylsulfonyl fluoride), and treated with ultrasonic waves. The supernatant was loaded onto Ni-NTA affinity resin. Proteins were eluted using a 20 mM to 500 mM imidazole gradient dissolved in lysis buffer. After removing the histidine tag with thrombin, the protein was further purified by HiTrap Q anion exchange chromatography (17115401, GE Healthcare).
To determine the effect on in vitro Cp149 assembly, compounds of the present invention were added to the Cp149-containing suspension. The final concentration of Cp149 was 1 mg per mL, and the compounds of the present invention were added at concentrations of 0.1 to 10 μM. The suspension was mixed with reaction buffer (150 mM HEPES, pH 7.5, 15 mM NaCl) added in a 2:1 ratio. In vitro assembly was performed at 37° C. for 1 hour, and HBV capsid was detected by immunoblot analysis using an anti-HBV core antibody (1:2000, B0586, Dako).

The subject of experiment [2] is HBV DNA. The experiment can be described thus: Quantitative PCR for measuring HBV DNA in cells (HBV DNA quantification). The format is cell-based. The protocol:
After treating cells with the indicated compounds, HBV DNA secreted into the medium and intracellular HBV DNA were extracted, purified, and quantified by quantitative PCR. To isolate the secreted HBV DNA, the culture medium was recovered and centrifuged at 15,000×g to remove debris. The medium was diluted 1:1 with phosphate-buffered saline (PBS), and 1 M NaOH solution was added to a final concentration of 0.1 M. The mixture was incubated at 37° C. for 1 hour. The protein was denatured by adding 2M Tris-HCl solution (pH 7.5) to a final concentration of 0.2 M and incubating at 98° C. for 5 minutes. The protein precipitation was removed by centrifugation at 15,000×g, and the supernatant was subjected to PCR with HBV DNA primer and probe sets:
Forward: 5′-[…]-3′, Reverse: 5′-[…]-3′, Probe: 5′-[…]-3′.

The mark [3] stands for this setting: Hepatitis B virus, read-out: HBV DNA quantification (IC50 μM).
The mark [4] stands for this setting: Hepatitis B virus; read-out: HBV DNA quantification (IC50 μM).
The mark [5] stands for this setting: Hepatitis B virus, read-out: HBV DNA quantification.

pIC50: −log10 of the molar value. Where two headings read alike, the source gives them in different places.

T1 sequence (P03146 1-149): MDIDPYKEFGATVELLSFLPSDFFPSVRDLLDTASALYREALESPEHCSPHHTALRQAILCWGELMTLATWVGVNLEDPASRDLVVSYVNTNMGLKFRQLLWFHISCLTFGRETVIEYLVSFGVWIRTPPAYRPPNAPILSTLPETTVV

Take `COc1ncccc1C(=O)NCCNc1cc(Nc2ccccc2)nc([S+](C)[O-])n1` (stereo not shown) [Compound 9a, 2-methoxy-N-(2-(2-(methylsulfinyl)-6-(phenylamino)pyrimidin-4-ylamino)ethyl)nicotinamide]: in experiment [1], the inhibition (usually how much of the control response was suppressed) at 0.1 µM came out at 14% and the inhibition at 1 µM worked out at 83%. For the same compound, the concentration for half-maximal inhibition (IC50) (in general, the midpoint of a concentration-inhibition curve) in experiment [2] (setting [3]) is 0.484 µM.

Turning to `CS(=O)(=O)c1nc(Nc2ccc(F)c(Cl)c2)cc(N2CCNCC2)n1` [Compound 26c, N-(3-chloro-4-fluorophenyl)-2-(methylsulfonyl)-6-(piperazin-1-yl)pyrimidin-4-amine], in experiment [1], the inhibition at 0.1 µM amounted to 47% and the inhibition at 1 µM worked out at 90%. Further, the IC50 in experiment [2] (setting [3]) was 0.189 µM.

On to `CS(=O)(=O)c1nc(Nc2ccc(F)c(Br)c2)cc(NC2CCNCC2)n1` [Compound 26g, N^4-(3-bromo-4-fluorophenyl)-2-(methylsulfonyl)-N^6-(piperidin-4-yl)pyrimidine-4,6-diamine], for which, in experiment [1], the inhibition at 0.1 µM was determined as 7% and the inhibition at 1 µM was 97%. Besides, the 50% inhibitory concentration (IC50) in experiment [2] (setting [4]) stood at 0.536 µM.

Take `COc1ncccc1C(=O)NCCNc1cc(Nc2ccc(N3CCOCC3)cc2)nc([S+](C)[O-])n1` (stereo not shown) [Compound 5a, 2-methoxy-N-(2-(2-(methylsulfinyl)-6-(4-morpholinophenylamino)pyrimidin-4-ylamino)ethyl)nicotinamide]: in experiment [1], the pIC50 was 5.28, the inhibition at 0.1 µM worked out at 43%, the inhibition at 1 µM turned out to be 83% and the inhibition at 10 µM amounted to 95%. Moreover, the half-inhibitory concentration (IC50) in experiment [2] (setting [4]) stood at 0.402 µM.

As for `COc1ncccc1C(=O)NCCNc1cc(Nc2ccc(N3CCOCC3)cc2)nc(SC)n1` [Compound 4a, 2-methoxy-N-(2-(2-(methylthio)-6-(4-morpholinophenylamino)pyrimidin-4-ylamino)ethyl)nicotinamide], in experiment [1], the pIC50 is 5.01 and the inhibition at 10 µM was found to be 23%. For the same compound, the IC50 in experiment [2] (setting [4]) is above 10 µM.

Regarding `COc1ncccc1C(=O)NCCNc1cc(Nc2ccc(F)cc2)nc([S+](C)[O-])n1` (stereo not shown) [Compound 9b, N-(2-(6-(4-fluorophenylamino)-2-(methylsulfinyl)pyrimidin-4-ylamino)ethyl)-2-methoxynicotinamide], in experiment [1], the inhibition at 0.1 µM stood at 32% and the inhibition at 1 µM amounted to 83%. Also, the concentration for half-maximal inhibition (IC50) in experiment [2] (setting [4]) amounted to 0.21 µM.

For `COc1ncccc1C(=O)N1CCN(c2cc(Nc3ccc(N4CCOCC4)cc3)nc(SC)n2)CC1` [Compound 13, (2-methoxypyridin-3-yl)(4-(2-(methylthio)-6-(4-morpholinophenylamino)pyrimidin-4-yl)piperazin-1-yl)methanone], in experiment [1], the inhibition at 10 µM is 31%. The half-maximal inhibitory concentration (IC50) in experiment [2] (setting [4]) is above 10 µM.

As to `CC(C)(C)OC(=O)N1CCN(c2cc(Nc3ccc(F)c(F)c3)nc(S(C)(=O)=O)n2)CC1` [Compound 22g, tert-butyl 4-(6-(3,4-difluorophenylamino)-2-(methylsulfonyl)pyrimidin-4-yl)piperazine-1-carboxylate], the inhibition at 10 µM in experiment [1] turned out to be 84%. Further, the IC50 in experiment [2] (setting [3]) was 0.658 µM.

With `CS(=O)(=O)c1nc(Cl)cc(Nc2ccc(F)cc2F)n1` [Compound 16a, 6-chloro-N-(2,4-difluorophenyl)-2-(methylsulfonyl)pyrimidin-4-amine], the inhibition at 10 µM in experiment [1] was 85%. Also, the IC50 in experiment [2] (setting [3]) is above 10 µM.

With `CS(=O)(=O)c1nc(Nc2ccc(F)cc2)cc(N2CCNCC2)n1` [Compound 26a, N-(4-fluorophenyl)-2-(methylsulfonyl)-6-(piperazin-1-yl)pyrimidin-4-amine], in experiment [1], the inhibition at 10 µM worked out at 86%. In addition, the IC50 in experiment [2] (setting [4]) amounted to 0.962 µM.

For the compound `COc1ncccc1C(=O)NCCNc1cc(Nc2ccc(F)cc2Cl)nc([S+](C)[O-])n1` (stereo not shown) [Compound 9h, N-(2-(6-(2-chloro-4-fluorophenylamino)-2-(methylsulfinyl)pyrimidin-4-ylamino)ethyl)-2-methoxynicotinamide], the inhibition at 10 µM in experiment [1] amounted to 43%. Besides, the IC50 in experiment [2] (setting [3]) is above 10 µM.

For `COc1ncccc1C(=O)N1CCN(c2cc(Nc3ccc(N4CCOCC4)cc3)nc([S+](C)[O-])n2)CC1` (stereo not shown) [Compound 14, (2-methoxypyridin-3-yl)(4-(2-(methylsulfinyl)-6-(4-morpholinophenylamino)pyrimidin-4-yl)piperazin-1-yl)methanone], in experiment [1], the inhibition at 10 µM turned out to be 33%. In addition, the IC50 in experiment [2] (setting [4]) was above 10 µM.

For the compound `CS(=O)(=O)c1nc(Nc2ccc(F)c(Cl)c2)cc(Nc2ccc(F)c(Cl)c2)n1` [Compound 18c, N^4,N^6-bis(3-chloro-4-fluorophenyl)-2-(methylsulfonyl)pyrimidine-4,6-diamine], in experiment [1], the inhibition at 10 µM turned out to be 57%. Besides, the 50% inhibitory concentration (IC50) in experiment [2] (setting [3]) is 0.587 µM.

On to `CC(C)(C)OC(=O)N1CCN(c2cc(NCc3cc(F)c(F)c(F)c3)nc(S(C)(=O)=O)n2)CC1` [Compound 22l, tert-butyl 4-(2-(methylsulfonyl)-6-(3,4,5-trifluorobenzylamino)pyrimidin-4-yl)piperazine-1-carboxylate], for which the inhibition at 10 µM in experiment [1] amounted to 89%. Further, the IC50 in experiment [2] (setting [3]) was 1.02 µM.

`CC(C)(C)OC(=O)N1CCN(c2cc(Nc3ccc(F)cc3)nc(S(C)(=O)=O)n2)CC1` [Compound 22a, tert-butyl 4-(6-(4-fluorophenylamino)-2-(methylsulfonyl)pyrimidin-4-yl)piperazine-1-carboxylate]: in experiment [1], the inhibition at 10 µM is 68%. For the same compound, the IC50 in experiment [2] (setting [3]) was 0.831 µM.

Regarding “6-(4-aminopiperidin-1-yl)-2-(methylsulfonyl)-N-(3,4,5-trifluorophenyl)pyrimidin-4-amine [Compound 26h]”, the “Protein based assay (% inhibition), 0.1 μM” value in experiment [1] (compound 0.1 μM) was 29%. Also, the “Protein based assay (% inhibition), 1 μM” value in experiment [1] (compound 1 μM) is 96%. In addition, the IC50 in experiment [2] (read-out: HBV DNA quantification (IC50 μM)) came out at 0.292 µM.

Regarding `CC(C)(C)OC(=O)N1CCN(c2cc(Nc3ccc(Cl)cc3)nc(S(C)(=O)=O)n2)CC1` [Compound 22c, tert-butyl 4-(6-(4-chlorophenylamino)-2-(methylsulfonyl)pyrimidin-4-yl)piperazine-1-carboxylate], the inhibition at 10 µM in experiment [1] was 68%. Further, in experiment [2] (setting [3]), the IC50 amounted to 0.577 µM.

With `COc1ncccc1C(=O)NCCNc1cc(Nc2ccc(Br)cc2)nc(SC)n1` [Compound 8d, N-(2-(6-(4-bromophenylamino)-2-(methylthio)pyrimidin-4-ylamino)ethyl)-2-methoxynicotinamide], the inhibition at 10 µM in experiment [1] came to 76%. In experiment [2] (setting [5]), the pIC50 was below 5.00.

For the compound `CSc1nc(N)cc(N(CCc2ccc(F)cc2)c2ccc(N3CCOCC3)cc2)n1` [Compound 11b, N^4-(4-fluorophenethyl)-2-(methylthio)-N^4-(4-morpholinophenyl)pyrimidine-4,6-diamine], in experiment [1], the inhibition at 10 µM is 74%. Also, the half-maximal inhibitory concentration (IC50) in experiment [2] (setting [4]) is above 10 µM.

In the case of `COc1cncc(C(=O)NCCNc2cc(Nc3ccc(N4CCOCC4)cc3)nc([S+](C)[O-])n2)c1` (stereo not shown) [Compound 5b, 5-methoxy-N-(2-(2-(methylsulfinyl)-6-(4-morpholinophenylamino)pyrimidin-4-ylamino)ethyl)nicotinamide], the inhibition at 10 µM in experiment [1] stood at 78%. Moreover, in experiment [2] (setting [4]), the IC50 is above 10 µM.

As for `C[S+]([O-])c1nc(NCCNC(=O)c2ccc(F)cc2)cc(Nc2ccc(N3CCOCC3)cc2)n1` (stereo not shown) [Compound 5c, 4-fluoro-N-(2-(2-(methylsulfinyl)-6-(4-morpholinophenylamino)pyrimidin-4-ylamino)ethyl)benzamide], in experiment [1], the inhibition at 10 µM amounted to 0%. The IC50 in experiment [2] (setting [4]) was above 10 µM.

For `COc1ncccc1C(=O)NCCNc1cc(Nc2ccc(F)cc2Cl)nc(SC)n1` [Compound 8g, N-(2-(6-(2-chloro-4-fluorophenylamino)-2-(methylthio)pyrimidin-4-ylamino)ethyl)-2-methoxynicotinamide], the inhibition at 10 µM in experiment [1] amounted to 43%. For the same compound, the pIC50 in experiment [2] (setting [5]) is below 5.00.

On to `CSc1nc(NCCNC(=O)c2ccc(F)cc2)cc(Nc2ccc(N3CCOCC3)cc2)n1` [Compound 4c, 4-fluoro-N-(2-(2-(methylthio)-6-(4-morpholinophenylamino)pyrimidin-4-ylamino)ethyl)benzamide], for which the inhibition at 10 µM in experiment [1] turned out to be 0%. Also, the half-maximal inhibitory concentration (IC50) in experiment [2] (setting [4]) is above 10 µM.
